Data set [1] relates to murine P388 lymphocytic leukemia cells. Description: In vitro anti-tumor activity against murine P388 lymphocytic leukemia cells (MTT, 72 h). The data set is classed as cell-based. The conditions noted are these: Mus musculus; murine P388 cells, 72 h, MTT; read-out: IC50 (50% proliferation inhibitory concentration). The method, boiled down:
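MTT assay, 72 h exposure; formazan dissolved in DMSO after centrifugation and supernatant removal. Absorbance read at 570 nm with 690 nm reference. IC50 (μg/ml) by least squares.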

The test system of data set [2] is KB human nasopharynx cancer. Description: In vitro anti-tumor activity against KB human nasopharynx cancer (MTT). The data set is classed as cell-based. To be noted: KB, 72 h, MTT, read-out: IC50. Put shortly:
(§1)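 Read-out is MTT formazan, dissolved in dimethyl sulfoxide after a 4-hour MTT (5 mg/ml) incubation. Before that, seeded cells (500 to 2,000 per well) grew 20 hours at 37° C and then received compound for 72 hours.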

The test system of data set [3] is HMV2 human melanoma. Description: In vitro anti-tumor activity against HMV-2 human melanoma (MTT). The conditions noted are these: HMV-2, 72 h, MTT, read-out: IC50. The data set is classed as cell-based. The method, boiled down:
as §1

Data set [4] has as its system MKN45 human stomach cancer. Description: In vitro anti-tumor activity against MKN45 human stomach cancer (MTT). To be noted: MKN-45, MKN45, 72 h, MTT, read-out: IC50. The data set is classed as cell-based. Put shortly: as §1
Data set [5] relates to C33A human cervix cancer. The data set can be described thus: In vitro anti-tumor activity against C-33A human cervix cancer (MTT). The data set is classed as cell-based. The conditions noted are these: C-33A, 72 h, MTT, read-out: IC50. The method, boiled down:
as §1

The test system of data set [6] is A427 human lung cancer. Description: In vitro anti-tumor activity against A-427 human lung cancer (MTT). It counts as cell-based. To be noted: A-427, 72 h, MTT, read-out: IC50. Put shortly:
as §1

For data set [7], the system named is colon 26 murine tumor cells. The data set can be described thus: Tumor growth inhibition effect on colon 26 murine tumor cells implanted mice. It counts as in vivo, SLC: CDF1 mice. To be noted: Mus musculus, Colon 26, 504 h; ip, 1.56 mg/kg once a day, days 1-9; day 21 or 22; read-out: Tumor growth inhibition rate IR (%). The method, boiled down:
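CDF1 female mice (7–9 weeks, 7 per group) implanted intracutaneously in the abdomen with 2% brei of colon 26 cells. Compound given ip once daily from day 1 to day 9. Tumor weight estimated from diameters on day 21 or 22; IR % = [1 − (treated MTW/control MTW)] × 100.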

Data set [8] concerns human cancer cells (KB, MX-1, WiDr, HMV-2, LX-1) implanted in nude mice. Description: Growth inhibition of human cancer cells implanted in nude mice (Test Examples 5 to 9). It counts as in vivo, human cancer cells in BALB/c nude mice. The conditions noted are these: 50 mg/kg, FIGS. 1-9 (cell line not stated). The method, then: In the following Test examples 5 to 9, human cancer cells were implanted in nude mice, to which test compounds dissolved in an aqueous solution containing NaOH were administered, and, thus, the degree of growth inhibition of cancer cells was observed.
FIGS. 1-9 show the variation with the lapse of days of IR.
FIGS. 10-14 show the relation between tumor weight and the lapse of days in the case where Compound 1--1 was used in Test examples 5-9. Vertical axis corresponds to tumor weight, and horizontal axis corresponds to the days which passed after the start of administration. Tumor weight was estimated from tumor diameter. The term Control in FIGS. 10-14 means tumor weight variation with days in nude mice to which, although cancer cells had been implanted, no test compounds had been administered.
In the following, there is explained schedule of administration of test compounds in nude mice. After days of × in number have passed from implantation of human cancer cells in nude mice, test compounds are intraperitoneally (ip) administered for y days, followed by wash-out periods of days of z in number. Thereafter, test compounds are administered again for y days. In this case, the cycle of administration (y days) and discontinuation (z days) is called "course". Such a schedule is denoted by marks as follows:
[(x) (y) (z) (course) (ip)]
These marks are explained below with an example. […]

Data set [9] in a line: physchem.

As to `CN[C@@H]1CN(c2ccc3c(=O)c(C(=O)O)cn(-c4nccs4)c3n2)C[C@H]1OC.Cl` (relative stereo) [Compound 1-1, 1,4-dihydro-7-(trans-3-methoxy-4-methylamino-1-pyrrolidinyl)-4-oxo-1-(2-thiazolyl)-1,8-naphthyridine-3-carboxylic acid hydrochloride], the IC50 in data set [1] was 0.0107 µg/mL; in data set [2] it was 0.11 µg/mL; in data set [3] it was 0.131 µg/mL; in data set [4], 0.15 µg/mL; in data set [5], 0.137 µg/mL; in data set [6] it was 0.0871 µg/mL. The inhibition in vivo at 1.56 mg/kg in [7] was found to be 86%. Moreover, the “Tumor Growth Inhibition Rate IR % on the last day of observation” value in data set [8] is listed as 91%. Also, the solubility (in general, the dissolved amount per volume that the medium holds) turned out to be 20.1 mg/mL in [9] (0.1 m phosphate buffer, pH 7.2, aqueous buffer) and 2.9 mg/mL in data set [9] (water).
